# Results taken from ChEMBL document CHEMBL1121806, “Inhibition of the renin-angiotensin system. A new approach to the therapy of hypertension” (J Med Chem, 1981).
# Starred links: 1 amine or outer side, 2 acyl side, 3 side chain; linkers in the order of their positions; H or OH if unused. Non-standard residues stand in square brackets, D forms with d. Residues, ends and D or L forms follow the SMILES beside them. ξ: configuration not given here. *: point of attachment. Sta(3ξ) = CC(C)C[C@H](N[*:1])C(O)CC(=O)[*:2]; Isovaleryl = CC(C)CC(=O)*
# T1: Renin (Homo sapiens, UniProt P00797)
# T1 sequence (P00797 whole entry): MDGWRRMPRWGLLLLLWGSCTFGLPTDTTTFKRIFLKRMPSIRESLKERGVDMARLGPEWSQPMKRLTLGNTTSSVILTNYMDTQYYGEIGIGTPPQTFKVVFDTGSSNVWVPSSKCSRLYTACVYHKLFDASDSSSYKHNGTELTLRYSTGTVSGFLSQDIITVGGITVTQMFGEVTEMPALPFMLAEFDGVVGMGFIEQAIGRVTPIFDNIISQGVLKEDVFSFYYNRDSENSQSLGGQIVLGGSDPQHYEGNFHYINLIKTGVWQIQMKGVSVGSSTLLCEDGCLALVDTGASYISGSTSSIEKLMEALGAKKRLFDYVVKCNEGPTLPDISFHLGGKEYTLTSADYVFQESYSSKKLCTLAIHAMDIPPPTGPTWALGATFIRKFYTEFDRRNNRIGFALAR
# B1: Renin (Homo sapiens), P00797 (protein)
# chain: T1 sequence (P00797 whole entry)
# Target: T1, Renin
# Experiment: Antihypertensive activity against human renin
row,Molecule,Ki
1,C[C@H](CCC(=O)O)C(=O)N1CCC[C@H]1C(=O)O,800 nM
2,H-EWPRPQIPP-OH,800 nM
3,C[C@@H](NC(=O)[C@H](Cc1ccccc1)NP(=O)(O)Oc1ccccc1)C(=O)O,2200 nM
4,COC(=O)[C@H](CCCN=C(N)N)NC(=O)CC(O)[C@H](CC(C)C)NC(=O)[C@H](C)NC(=O)CC(O)[C@H](CC(C)C)NC(=O)[C@@H](NC(=O)[C@@H](NC(=O)CC(C)C)C(C)C)C(C)C (some centres undefined) (Isovaleryl-VV[Sta(3ξ)]A[Sta(3ξ)]R-OMe),300 nM
5,CC(C)CC(=O)N[C@H](C(=O)N[C@H](C(=O)N[C@@H](CC(C)C)C(O)CC(=O)N[C@@H](C)C(=O)N[C@@H](CC(C)C)C(O)CC(=O)N[C@@H](CCCN=C(N)N)C(=O)O)C(C)C)C(C)C (some centres undefined) (Isovaleryl-VV[Sta(3ξ)]A[Sta(3ξ)]R-OH),100 nM
6,CC(C)C[C@H](NC(=O)[C@H](Cc1cnc[nH]1)NC(=O)[C@H](Cc1ccccc1)NC(=O)[C@H]1CCCN1C(=O)[C@H](Cc1cnc[nH]1)NC(=O)[C@H]1CCCN1)C(=O)N[C@@H](CC(C)C)C(=O)N[C@H](C(=O)N[C@@H](Cc1ccc(O)cc1)C(=O)O)C(C)C,42000 nM
7,C[C@H](NP(=O)(O)Oc1ccccc1)C(=O)N1CCC[C@H]1C(=O)O,1 nM
8,C[C@H](CS)C(=O)N1CCC[C@H]1C(=O)O [CAPTOPRIL],1.7 nM
9,CC(C)C[C@H](NC(=O)[C@H](Cc1cnc[nH]1)NC(=O)[C@H](Cc1ccccc1)NC(=O)[C@H]1CCCN1C(=O)[C@H](Cc1cnc[nH]1)NC(=O)[C@H]1CCCN1)C(=O)N[C@@H](Cc1ccccc1)C(=O)N[C@H](C(=O)N[C@@H](Cc1ccc(O)cc1)C(=O)O)C(C)C,4000 nM
10,C[C@H](NC(CCc1ccccc1)C(=O)O)C(=O)N1CCC[C@H]1C(=O)O (some centres undefined),1.2 nM
11,CC(C)[C@H](NC(=O)[C@H](Cc1ccccc1)NC(=O)[C@H](Cc1ccccc1)NC(=O)[C@H](Cc1c[nH]cn1)NC(=O)[C@H](Cc1ccccc1)NC(=O)[C@H]1CCCN1C(=O)[C@H](Cc1c[nH]cn1)NC(=O)[C@H]1CCCN1)C(=O)N[C@@H](Cc1ccc(O)cc1)C(=O)O,1000 nM
12,C[C@H](CC(=O)NO)C(=O)N1CCC[C@H]1C(=O)O,600 nM
13,C[C@H](CC(=O)O)C(=O)N1CCC[C@H]1C(=O)O,2500 nM

# Substrate: CC[C@H](C)[C@H](NC(=O)[C@H](Cc1ccc(O)cc1)NC(=O)[C@@H](NC(=O)[C@H](CCCN=C(N)N)NC(=O)[C@@H](N)CC(=O)O)C(C)C)C(=O)N[C@@H](Cc1c[nH]cn1)C(=O)N1CCC[C@H]1C(=O)N[C@@H](Cc1ccccc1)C(=O)N[C@@H](Cc1c[nH]cn1)C(=O)N[C@@H](CC(C)C)C(=O)O
# Experiment: The compound was tested for its antihypertensive activity against human renin
# Type: functional
row,Molecule,Km
1,B1,50 µM
